Experimental data: US20260325473A1, “N-Beta-Hydroxybutyryl-Amino Acids and Related Compositions and Methods” (The Board of Trustees of the Leland Stanford Junior …, priority 2023, published 2026)

Tests used:
CNDP2 [1] = biological target: T1, CNDP2 (Mus musculus, UniProt Q9D1A2); assay: In vitro synthase (condensation) activity, lysates of CNDP2-transfected HEK293T cells; assay type: biochemical; set-up: expressed in transfected cells; host or cells: HEK293T (lysate); conditions: role: product; lactate and BHB at varying concentrations, phenylalanine 20 mM
T1 sequence (Q9D1A2 1-475): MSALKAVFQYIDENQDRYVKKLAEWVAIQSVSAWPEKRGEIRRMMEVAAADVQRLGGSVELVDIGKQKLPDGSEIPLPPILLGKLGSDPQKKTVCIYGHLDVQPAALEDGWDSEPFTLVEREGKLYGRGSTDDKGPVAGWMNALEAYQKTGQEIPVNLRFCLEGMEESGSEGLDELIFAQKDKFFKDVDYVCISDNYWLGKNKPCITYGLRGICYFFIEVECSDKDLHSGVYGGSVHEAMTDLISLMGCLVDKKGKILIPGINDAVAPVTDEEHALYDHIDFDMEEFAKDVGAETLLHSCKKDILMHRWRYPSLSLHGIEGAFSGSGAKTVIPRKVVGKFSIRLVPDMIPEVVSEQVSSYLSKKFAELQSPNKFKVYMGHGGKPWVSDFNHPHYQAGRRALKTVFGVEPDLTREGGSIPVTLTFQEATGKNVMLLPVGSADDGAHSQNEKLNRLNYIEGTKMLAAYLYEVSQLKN
Experimental: In vitro enzyme activity assays. HEK293T cells were transfected with GFP, CNDP2 or CNDP2-E166A using PolyFect (Qiagen 301105) according to the manufacturer's instructions. The medium was changed one day post-transfection. After an additional 24 h, the cells were harvested in PBS, lysed by sonication and centrifuged (10 min at 15,000 rpm) to remove debris. Supernatant was collected and protein concentrations were adjusted. The in vitro reactions were conducted in Eppendorf tubes with 100 μL of 1 mg/mL protein and 20 mM substrates for keto amino acid synthase activity assays and. Reactions were incubated for 1 h at 37° C. and 20 μl of 1 M HCl were added to acidify the medium and to protonate keto amino acids. Reactions were vortexed and 400 μL of ethyl acetate were added to each reaction. Reactions were vortexed for 30 s to extract keto amino acids into the organic layer and centrifuged at 4° C. for 10 min at 15,000 r.p.m. A total of 300 μl from the top layer was transferred to a new Eppendorf tube and dried down under a stream of nitrogen. The residue was re-suspended in 150 μl of an 2:1:1 mixture of acetonitrile: methanol: water. The mixture was centrifuged at 4° C. for 10 min at 15,000 r.p.m. and the supernatant was transferred to a LC-MS vial.

food intake = conditions: Li et al. 2022; cited from earlier work
CNDP2 [2] = biological target: T1, CNDP2; conditions: Li et al. 2022; cited from earlier work
brain lysate proteins = assay: Competition of X-Phe photoprobe-labeled brain proteins, quantitative shotgun proteomics; assay type: binding, mouse
Experimental: Shotgun proteomics of X-Phe photoprobe-labeled proteins. Brains from wild type C57BL/6J mice were harvested and homogenized using a bead blaster in PBS. Brain homogenate was centrifuged (15,000 rpm, 10 min) to yield the cytosolic supernatant and membrane pellet fractions. The cytosolic fraction was transferred to a new eppie and centrifuged again (15,000 rpm, 10 min). This process was repeated 4 times until no pellet was present after centrifugation. The membrane pellet was washed with 1 ml PBS and centrifuged (15,000 rpm, 10 min); this step was also repeated 4 times to remove any cytosolic protein contamination. After the centrifugation steps, the membrane pellet was re-suspended in PBS and sonicated. For competition experiments, brain lysate was normalized to 2 mg/ml in PBS and incubated with competitors at the indicated concentrations at room temperature for 30 minutes. 100 μM of the photoprobe was added and the reactions incubated on ice for 10 minutes protected from light. Reactions were then put under UV for 1 min on a UV Stratalinker. A biotin click reaction was performed by adding the following reagents to the indicated final concentrations: […], 1 mM CuSO4, 1 mM TCEP (freshly prepared), 30 μM Biotin-N3. Reactions were allowed to proceed for 1 hour at room temp, protected from light, and while rotating. The following prep was adapted from Niphakis et al. 2015. To each reaction, the following solvents were added in order, 4 ml cold methanol, 1 ml cold chloroform, 2 ml cold PBS. The mixture was vortexed well and centrifuged (4,600×g, 15 min, 4° C.). After centrifugation the organic and aqueous layers were removed without disruption of the protein disc. The protein disc was washed with a cold 1:1 mixture of methanol:chloroform 3 times. After the final wash, the protein disc was re-suspended in a 4:1 mixture of methanol:chloroform and sonicated. The insoluble protein was pelleted by centrifugation (4,600×g, 15 min, 4 C) and the pellet re-suspended in freshly prepared 500 μl of 6 M urea in PBS. 20 μl of 10% (w/v) SDS was added to the solution. The solution was then warmed in a 37 C water bath for 10 min to help dissolve poorly soluble protein. A streptavidin pulldown was the performed on the protein mixture. 250 μl of streptavidin beads were washed 3 times with 1 ml PBS. Protein samples were diluted with 5.5 ml of 0.25% SDS in PBS and incubated with streptavidin beads for 1.5 hr at room temperature. Following incubation, beads were washed 5 times each with 0.25% SDS in PBS, then PBS, then lastly with ultra-pure water Steptavidin beads were suspended in 150 μL resuspension buffer (1 M urea, 50 mM Tris-HCl, pH 8). Proteins were digested with 3 μg of trypsin for 4 hours. Digested peptides were reduced with 5 mM TCEP for 10 minutes. Cys residues were alkylated using 15 mM iodoacetimide (IAA) for 20 minutes. Finally, excess IAA was quenched with 10 mM DTT. Acidified digested peptides were desalted over C18 StageTips [PMID: 12585499]. Peptides were then eluted with 80% acetonitrile, 0.1% TFA and dried in a speedvac. Dried samples were reconstituted with 200 mM EPPS buffer, pH 8.0, and labelled with TMT reagents (Thermo Fisher Scientific). Following incubation at room temperature for 2 h, the reactions were quenched with hydroxylamine to a final concentration of 0.5% (v/v). […]

[3] = Metabolite quantitation in mouse plasma (QQQ-LC/MS); assay type: in vivo
Experimental: Preparation of plasma samples for LC-MS analysis. Plasma was collected from mice via a submandibular bleed into lithium heparin tubes (BD, 365985) and immediately transferred onto ice. The blood was centrifuged at 4° C. at 5000 rpm for 5 min and the top layer of plasma was aliquoted and frozen at −80 °C. To extract polar metabolites from plasma for LC-MS analysis, 150 μl of a 2:1 mixture of acetonitrile/methanol was added to 50 μl of plasma. The mixture was centrifuged at 4° C. for 10 min at 15,000 rpm and the supernatant was transferred to a LC-MS vial.
Targeted metabolomics. Targeted measurements were performed using an Agilent 6470 triple quadrupole LC-MS instrument. MS analysis was performed using AJS in negative mode. The AJS source parameters were set as follows: the dry gas temperature was set at 250° C. with a gas flow of 12 l/min and the nebulizer pressure at 25 psi; the sheath gas temperature was set to 300° C. with the sheath gas flow set at 12 l/min; and the capillary voltage was set to 3,500 V. Separation of polar metabolites was performed as described above in the ‘Untargeted measurements of metabolites by LC-MS’ section. Multiple reaction monitoring was performed for the indicated metabolites with the listed dwell times, fragmentor voltage, collision energies, cell accelerator voltages and polarities. Quantification of the endogenous metabolite concentrations were performed by generating a standard curve with known concentrations of each metabolite. Metabolite standards were analyzed alongside the plasma samples using the same targeted triple quadrupole LC/MS method. A calibration standard curve generated from the metabolite standard concentrations and total peak areas were used to calculate the concentrations of each endogenous metabolite. The dilution of the plasma during the sample preparation was also taken into account for the quantification.

CNDP2 [4] = biological target: T1, CNDP2; assay: In vitro synthase (condensation) activity, lysates of CNDP2-transfected HEK293T cells; assay type: biochemical; set-up: expressed in transfected cells; host or cells: HEK293T (lysate); conditions: role: substrate; organic acids 1 mM with 10 mM phenylalanine

products formed from combined lactate and BHB (CNDP2 [1])	elevation after acute treadmill running ([3]; 15 min running) [fold]	effect of ketone ester administration on level ([3]; 30 min after ketone drink, 3 mg/g)	effect of strenuous and prolonged exercise on level ([3]; 30 min strenuous running)	CNDP2 activity towards organic acid substrates (CNDP2 [4])	Compound	food intake (food intake)	Lac-Phe levels upon genetic ablation of CNDP2 (CNDP2 [2])	competition of X-Phe photoprobe-labeled proteins (brain lysate proteins; 100 μM photoprobe, 50-fold excess competitor) [%]	number of the 32 Keto-Phe targets also >80% competed by Lac-Phe (brain lysate proteins; 50-fold excess Lac-Phe)	share of the 32 Keto-Phe targets also >80% competed by Lac-Phe (brain lysate proteins; 50-fold excess Lac-Phe) [%]
simultaneous production	8	without affecting Lac-Phe levels	robust co-induction	–	C[C@H](O)C(=O)N[C@@H](Cc1ccccc1)C(=O)O [Lac-Phe, N-lactoyl phenylalanine]	suppresses food intake	dramatically reduces Lac-Phe levels	> 80	30 out of 32	94
–	–	–	–	unable to accept	CC(=O)O [acetate]	–	–	–	–	–
